2 sequences from US11384120B2, “Peptide capable of binding to biomarker for inflammatory and metabolic diseases, and use thereof” (NIBEC CO., LTD., priority 2019, dated 2022) can be followed below.

For one data set, the system named is IL-6. As to the kind of experiment: IL-6 expression by ELISA in palmitic acid-treated HepG2 cells. Particulars: HepG2, peptide 200 μM 2 hours, then palmitic acid 200 μM 24 hours, medium, FIG. 4. Format: cell-based. The method, then: HepG2 cells were plated at a density of 70% on a 6-well plate. After 16 hours, the cells were starved using DMEM medium containing 0.5% FBS for 2 hours. The cells were treated with a medium containing each of the peptides of SEQ ID NOS: 1 to 6 at a concentration of 200 μM for 2 hours, and were further treated with palmitic acid at a concentration of 200 μM to induce an inflammatory response for 24 hours. Each medium was collected, and the level of expression of IL-6, an inflammatory cytokine, was detected with an ELISA kit (R&D, Minneapolis, Minn., USA).

For data set [1], the system named is RAW 264.7 cells.
Method: (§1) RAW 264.7 cells were seeded at a density of 2×10^4/well on a 6-well plate. After 24 hours, replacement was conducted with DMEM medium containing 0.5% FBS. The cells were treated with 50 μM of each of fluorescence (rhodamine)-labeled peptides of SEQ ID NOS: 1, 5 and 6. After 20 minutes, the cells were fixed and observed with a confocal microscope.
Data set [2] concerns RAW 264.7 cells. As to the kind of experiment: cell permeability of rhodamine-labeled peptides by confocal microscopy. The conditions noted are these: RAW 264.7, rhodamine-labeled peptide 50 μM, 20 minutes, FIG. 3.
Method: as §1

Read-outs that look alike come from different tables or passages of the source.

Take “AESPLTNRGWNPGKCSTRGRKCCRRKK [SEQ ID NO: 6]”: in the data set with IL-6, the “expression level of IL-6” value was “lowest IL-6 expression level”. Further, the “cell permeability (fluorescence in the cells)” value in the data set on RAW 264.7 cells [1] was “excellent cell permeability”.
For GKCSTRGRKCCRRKK [SEQ ID NO: 5], the “cell permeability (fluorescence in the cells)” value in the data set with RAW 264.7 cells [2] is on record as “excellent cell permeability”.
